{"source": "ChEMBL document CHEMBL1125527", "about": "“Disodium (R,R)-5-[2-[[2-(3-chlorophenyl)-2-hydroxyethyl]-amino] propyl]-1,3-benzodioxole-2,2-dicarboxylate (CL 316,243). A potent beta-adrenergic agonist virtually specific for beta 3 receptors. A promising antidiabetic and antiobesity agent” (J Med Chem, 1992)", "key": {"[1]": {"target": "Beta-1 adrenergic receptor (Rattus norvegicus, UniProt P18090)", "sequence (P18090 whole entry)": "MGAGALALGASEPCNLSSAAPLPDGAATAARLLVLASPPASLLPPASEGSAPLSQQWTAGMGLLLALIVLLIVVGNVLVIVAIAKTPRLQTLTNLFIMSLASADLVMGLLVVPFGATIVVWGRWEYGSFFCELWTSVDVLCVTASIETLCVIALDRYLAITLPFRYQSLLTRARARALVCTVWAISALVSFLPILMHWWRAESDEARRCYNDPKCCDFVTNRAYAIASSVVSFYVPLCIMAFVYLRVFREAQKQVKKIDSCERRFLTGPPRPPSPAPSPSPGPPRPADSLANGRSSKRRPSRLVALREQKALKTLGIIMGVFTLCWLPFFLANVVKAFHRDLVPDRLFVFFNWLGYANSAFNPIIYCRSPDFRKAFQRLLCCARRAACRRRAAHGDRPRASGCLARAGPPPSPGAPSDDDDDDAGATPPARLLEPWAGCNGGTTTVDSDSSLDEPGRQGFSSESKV", "assay": "Compound was evaluated for its binding affinity towards Beta-1 adrenergic receptor in rat heart membrane by displacing [125I]- iodocyanopindolol", "assay_type": "cell membranes"}, "[2]": {"target": "Beta-3 adrenergic receptor (Rattus norvegicus, UniProt P26255)", "sequence (P26255 whole entry)": "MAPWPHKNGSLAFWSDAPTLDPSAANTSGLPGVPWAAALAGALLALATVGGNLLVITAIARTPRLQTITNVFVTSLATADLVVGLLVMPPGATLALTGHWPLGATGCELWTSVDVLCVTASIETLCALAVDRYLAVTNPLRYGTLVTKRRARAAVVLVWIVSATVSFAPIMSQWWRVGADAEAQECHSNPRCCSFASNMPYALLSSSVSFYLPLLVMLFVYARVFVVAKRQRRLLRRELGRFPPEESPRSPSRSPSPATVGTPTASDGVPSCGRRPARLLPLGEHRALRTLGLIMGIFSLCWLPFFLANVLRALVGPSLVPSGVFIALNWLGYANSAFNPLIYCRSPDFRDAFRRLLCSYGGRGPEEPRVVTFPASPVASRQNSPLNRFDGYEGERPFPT", "assay": "In vitro beta-adrenergic activity against beta-3 adrenergic receptor in rat epididymal fat pads by stimulation of glycerol release from adipocytes.", "assay_type": "functional, tissue-based, Epididymal fat pad"}, "[3]": {"target": "T1, Beta-2 adrenergic receptor (Rattus norvegicus, UniProt P10608)", "T1 sequence (P10608 whole entry)": "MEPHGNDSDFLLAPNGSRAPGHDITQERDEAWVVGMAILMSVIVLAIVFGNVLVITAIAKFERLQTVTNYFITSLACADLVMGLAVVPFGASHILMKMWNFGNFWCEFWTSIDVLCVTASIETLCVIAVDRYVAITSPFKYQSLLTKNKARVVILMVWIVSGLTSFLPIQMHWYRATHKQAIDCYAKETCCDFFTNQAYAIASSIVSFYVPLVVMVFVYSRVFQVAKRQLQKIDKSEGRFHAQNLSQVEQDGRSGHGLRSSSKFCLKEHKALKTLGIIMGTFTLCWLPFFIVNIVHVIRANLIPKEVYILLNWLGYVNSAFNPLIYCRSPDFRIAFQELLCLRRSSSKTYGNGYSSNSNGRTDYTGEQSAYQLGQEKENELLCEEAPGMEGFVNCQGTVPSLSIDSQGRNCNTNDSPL", "description": "In vitro beta-adrenergic activity against beta-1 adrenergic receptor by the inhibition of insulin stimulated [14C]- glucose incorporation into glycogen in isolated rat soleus muscle"}, "[4]": {"target": "T1, Beta-2 adrenergic receptor", "assay": "Compound was evaluated for its binding affinity towards Beta-2 adrenergic receptor in rat soleus membrane by displacing […]", "assay_type": "cell membranes"}}, "data": [{"compound": "COC(=O)COc1ccc(C[C@@H](C)NC[C@H](O)c2cccc(Cl)c2)cc1", "values": [{"measurement": "IC50", "setting": "[1]", "result": 59, "unit": "nM"}, {"measurement": "EC50", "setting": "[2]", "result": 16, "unit": "nM"}, {"measurement": "IC50", "setting": "[3]", "result": 500, "unit": "nM"}, {"measurement": "IC50", "setting": "[4]", "result": 30, "unit": "nM"}]}, {"compound": "C[C@H](Cc1ccc(OCC(=O)O)cc1)NC[C@H](O)c1cccc(Cl)c1", "values": [{"measurement": "IC50", "setting": "[3]", "result": 190, "unit": "nM"}, {"measurement": "IC50", "setting": "[4]", "result": 1300, "unit": "nM"}]}]}
